This is an account of results in patent US20230113037A1 (Bayer Aktiengesellschaft, priority 2019, published 2023).

Values joined by “and” are separate entries in the source; they are usually repeats but may differ in a detail not shown here. Equal values may be shown once. Read-outs that look alike come from different tables or passages of the source. Bounds are passed on as bounds.

The target in test [1] is T1, AHR (Mus musculus, UniProt P30561).
T1 sequence (P30561 1-848 P471L/N533S/M589L): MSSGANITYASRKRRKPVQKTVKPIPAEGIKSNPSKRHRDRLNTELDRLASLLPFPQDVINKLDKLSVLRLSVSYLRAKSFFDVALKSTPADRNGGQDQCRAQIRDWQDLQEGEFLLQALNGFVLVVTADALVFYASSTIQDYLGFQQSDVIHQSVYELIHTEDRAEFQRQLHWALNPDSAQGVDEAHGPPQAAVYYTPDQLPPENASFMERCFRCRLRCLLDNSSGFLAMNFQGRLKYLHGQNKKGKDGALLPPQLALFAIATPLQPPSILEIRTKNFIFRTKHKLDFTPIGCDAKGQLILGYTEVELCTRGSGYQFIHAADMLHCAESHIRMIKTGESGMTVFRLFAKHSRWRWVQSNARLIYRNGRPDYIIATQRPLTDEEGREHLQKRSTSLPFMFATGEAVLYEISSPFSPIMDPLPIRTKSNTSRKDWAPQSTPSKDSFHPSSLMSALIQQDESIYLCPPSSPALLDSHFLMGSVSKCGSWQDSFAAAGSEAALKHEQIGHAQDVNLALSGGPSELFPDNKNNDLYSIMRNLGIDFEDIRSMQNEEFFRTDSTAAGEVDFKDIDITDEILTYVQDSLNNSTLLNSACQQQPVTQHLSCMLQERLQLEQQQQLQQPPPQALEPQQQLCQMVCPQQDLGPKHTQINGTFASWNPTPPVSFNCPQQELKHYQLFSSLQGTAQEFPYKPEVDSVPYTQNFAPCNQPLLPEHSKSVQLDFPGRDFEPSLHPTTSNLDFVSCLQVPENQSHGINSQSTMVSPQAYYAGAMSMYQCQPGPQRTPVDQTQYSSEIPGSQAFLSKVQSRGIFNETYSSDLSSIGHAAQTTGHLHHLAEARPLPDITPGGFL
The experiment in a line: In vitro assay 3: antagonism in mouse cell line (AHR transactivation, firefly luciferase reporter, kynurenic acid prestimulated). Format: cell-based. The method, boiled down: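 Mouse cells stably carrying a DRE-driven AHR-inducible firefly luciferase reporter were prestimulated with the endogenous agonist kynurenic acid before compound addition. Luciferase read by SteadyGlo; cells without kynurenic acid served as full-inhibition control, with normalization to positive and negative controls. Repeat tests reported as mean or median.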
On the technique in general: In a reporter assay the amount or activity of a reporter protein is the signal.

Test [2] addresses T2, AHR (Homo sapiens, UniProt P35869).
T2 construct: U87 MG glioblastoma cells (ATCC #HTB-14) endogenously expressing AHR; endogenous in cells; host or cells: U87 MG glioblastoma cells (ATCC #HTB-14)
T2 sequence (P35869 11-848): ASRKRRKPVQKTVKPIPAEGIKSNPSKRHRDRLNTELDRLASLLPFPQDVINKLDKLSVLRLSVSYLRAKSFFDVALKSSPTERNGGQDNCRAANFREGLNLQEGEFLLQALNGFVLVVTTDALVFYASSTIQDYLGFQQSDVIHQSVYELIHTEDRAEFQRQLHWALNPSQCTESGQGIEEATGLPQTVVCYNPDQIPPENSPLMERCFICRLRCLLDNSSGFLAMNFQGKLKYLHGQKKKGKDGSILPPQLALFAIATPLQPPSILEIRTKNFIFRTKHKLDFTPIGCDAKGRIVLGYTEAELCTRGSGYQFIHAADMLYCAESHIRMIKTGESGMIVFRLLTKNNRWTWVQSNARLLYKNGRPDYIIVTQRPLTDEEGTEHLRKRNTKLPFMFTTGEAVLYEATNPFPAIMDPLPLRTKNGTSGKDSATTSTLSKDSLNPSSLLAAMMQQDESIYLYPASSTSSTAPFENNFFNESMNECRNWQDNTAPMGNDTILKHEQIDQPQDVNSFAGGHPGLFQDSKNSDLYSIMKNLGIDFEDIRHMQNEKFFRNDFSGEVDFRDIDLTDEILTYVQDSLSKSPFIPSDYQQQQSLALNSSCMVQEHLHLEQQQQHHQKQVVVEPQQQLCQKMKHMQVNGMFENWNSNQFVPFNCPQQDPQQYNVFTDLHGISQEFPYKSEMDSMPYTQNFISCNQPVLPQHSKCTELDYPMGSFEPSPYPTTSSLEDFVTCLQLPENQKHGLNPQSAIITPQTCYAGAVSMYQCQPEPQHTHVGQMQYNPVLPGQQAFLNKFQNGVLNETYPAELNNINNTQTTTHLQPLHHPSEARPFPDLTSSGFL
In words: In vitro assay 1: antagonism in human cell line (AHR transactivation, firefly luciferase reporter, kynurenic acid prestimulated). The note with it: AHR Antagonism Human IC50 [M]. Format: cell-based. The method, boiled down: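 U87 MG glioblastoma cells with endogenous AHR, stably carrying a DRE-driven firefly luciferase reporter and constitutive Renilla reporter, prestimulated with kynurenic acid before compound addition. Firefly and Renilla read by dual luciferase; Renilla flags toxicity; normalized to controls (150 μM kynurenic acid + 5 μM staurosporine as full inhibition); repeat values averaged or median.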

[3] abbreviates: Hepa 1c1c7 cells, 200 μM kynurenic acid, 20 hours, firefly luciferase reporter, read-out: AHR Antagonism Mouse IC50.
Where [4] appears, read: mouse Hepa 1c1c7 cells, 200 μM kynurenic acid, 20 hours, read-out: AHR Antagonism Mouse IC50.

A word on the IC50: it is the concentration at which inhibition is half-maximal.

For the molecule `COc1ccc(-c2nc3c4cccc(CO)c4nc(N[C@@H]4CCCCNC4=O)n3n2)cc1` [Example 860, (3R)-3-{[7-(hydroxymethyl)-2-(4-methoxyphenyl)[1,2,4]triazolo[1,5-c]quinazolin-5-yl]amino}azepan-2-one], the IC50 on AHR [1] (setting [3]) is 16 nM; against AHR [2] (firefly luciferase reporter) it was 9.26e-10 M.
Take `COc1ccc(-c2nc3c4cc(F)ccc4nc(N[C@@H]4CNCCNC4=O)n3n2)cc1` [Example 277, (6R)-6-{[9-fluoro-2-(4-methoxyphenyl)[1,2,4]triazolo[1,5-c]quinazolin-5-yl]amino}-1,4-diazepan-5-one]: the half-maximal inhibitory concentration (IC50) on AHR [1] (setting [4]) was 15.1 nM; on AHR [2], above 2e-05 M.
For `C[C@@H](Nc1nc2ccccc2c2nc(-c3cccc(OC(F)(F)F)c3)nn12)C(=O)NCCN(C)C` [Example 325, N-[2-(dimethylamino)ethyl]-N^2-{2-[3-(trifluoromethoxy)phenyl][1,2,4]triazolo[1,5-c]quinazolin-5-yl}-D-alaninamide], the 50% inhibitory concentration (IC50) was 677 nM on AHR [1] (setting [4]); 1.49e-05 M and 1.56e-05 M and > 2e-05 M at AHR [2].
On to `CCn1cc(-c2nc3c4cccc(F)c4nc(N[C@@H]4CCCCNC4=O)n3n2)cn1` [Example 834, (3R)-3-{[2-(1-ethyl-1H-pyrazol-4-yl)-7-fluoro[1,2,4]triazolo[1,5-c]quinazolin-5-yl]amino}azepan-2-one], for which the figures for the half-maximal inhibitory concentration (IC50) on AHR [1] (setting [3]) and against AHR [2] (firefly luciferase reporter) were 10.7 nM and 6.25e-09 M, respectively.
Turning to `O=C1NCCCC[C@H]1Nc1nc2ccccc2c2nc(-c3cnsc3)nn12` [Example 645, (3R)-3-{[2-(1,2-thiazol-4-yl)[1,2,4]triazolo[1,5-c]quinazolin-5-yl]amino}azepan-2-one], the concentration for half-maximal inhibition (IC50) came to 6.64 nM on AHR [1] (setting [4]) and 1.66e-08 M on AHR [2].
Taken in the same sequence, the figures for `COc1ccc(-c2nc3c4ccccc4nc(N[C@@H]4CCCCNC4=O)n3n2)cc1` [Example 29, (3R)-3-{[2-(4-methoxyphenyl)[1,2,4]triazolo[1,5-c]quinazolin-5-yl]amino}azepan-2-one] were 0.524 nM and 4.03e-10 M.
On to `COc1ccc(-c2nc3c4cccc(Br)c4nc(N[C@H](C)C(=O)N4CC5(COC5)C4)n3n2)cc1` [Example 916, (2R)-2-{[7-bromo-2-(4-methoxyphenyl)[1,2,4]triazolo[1,5-c]quinazolin-5-yl]amino}-1-(2-oxa-6-azaspiro[3.3]heptan-6-yl)propan-1-one], for which the half-maximal inhibitory concentration (IC50) at AHR [1] (read-out: AHR Antagonism Mouse IC50, Hepa 1c1c7 cells, 200 μM kynurenic acid, 20 hours, firefly luciferase reporter) was 2.22 nM; against AHR [2] (firefly luciferase reporter), 1.06e-09 M.
As for `CC(C)Oc1ccc(-c2nc3c4ccccc4nc(N[C@@H]4CCCCNC4=O)n3n2)cc1F` [Example 632, (3R)-3-[(2-{3-fluoro-4-[(propan-2-yl)oxy]phenyl}[1,2,4]triazolo[1,5-c]quinazolin-5-yl)amino]azepan-2-one], the figures for the half-maximal inhibitory concentration (IC50) on AHR [1] (setting [4]) and at AHR [2] were 0.784 nM and 1.29e-09 M, respectively.
Taken in the same sequence, the figures for `CS(=O)(=O)c1ccc(-c2nc3c4ccccc4nc(N[C@@H]4CNCCNC4=O)n3n2)cc1` [Example 714, (6R)-6-({2-[4-(methanesulfonyl)phenyl][1,2,4]triazolo[1,5-c]quinazolin-5-yl}amino)-1,4-diazepan-5-one] were 134 nM and 1.64e-07 M.
Taken in the same sequence, the figures for `COc1cscc1-c1nc2c3ccccc3nc(N[C@@H]3CCN(C)C3=O)n2n1` [Example 337, (3R)-3-{[2-(4-methoxythiophen-3-yl)[1,2,4]triazolo[1,5-c]quinazolin-5-yl]amino}-1-methylpyrrolidin-2-one] were above 20000 nM and 1.71e-06 M.
The corresponding values for `Cn1cc(-c2nc3c4cccc(C(F)(F)F)c4nc(N[C@H]4CCCCNC4=O)n3n2)cn1` [Example 584, (3S)-3-{[2-(1-methyl-1H-pyrazol-4-yl)-7-(trifluoromethyl)[1,2,4]triazolo[1,5-c]quinazolin-5-yl]amino}azepan-2-one] are 153 nM and 4.39e-08 M.
As for `Cc1[nH]ncc1-c1nc2c3ccccc3nc(N[C@@H]3CCCCNC3=O)n2n1` [Example 609, (3R)-3-{[2-(5-methyl-1H-pyrazol-4-yl)[1,2,4]triazolo[1,5-c]quinazolin-5-yl]amino}azepan-2-one], the IC50 on AHR [1] (setting [4]) was 324 nM; against AHR [2], 1.57e-07 M.
The corresponding values for `CC[C@@H](Nc1nc2ccccc2c2nc(-c3cnccn3)nn12)C(N)=O` [Example 691, (2R)-2-{[2-(pyrazin-2-yl)[1,2,4]triazolo[1,5-c]quinazolin-5-yl]amino}butanamide] are 240 nM and 5.61e-07 M.
Take `O=C1NCCCC[C@H]1Nc1nc2ccccc2c2nc(-c3nc(CCO)no3)nn12` [Example 305, (3R)-3-({2-[3-(2-Hydroxyethyl)-1,2,4-oxadiazol-5-yl][1,2,4]triazolo[1,5-c]quinazolin-5-yl}amino)azepan-2-one]: the IC50 at AHR [1] (read-out: AHR Antagonism Mouse IC50, mouse Hepa 1c1c7 cells, 200 μM kynurenic acid, 20 hours) amounted to 178 nM; against AHR [2] it was 2.97e-07 M.
On to `COc1cccc(-c2nc3c4ccccc4nc(N[C@H](C)C(=O)N(C)C)n3n2)c1` [Example 110, N^2-[2-(3-methoxyphenyl)[1,2,4]triazolo[1,5-c]quinazolin-5-yl]-N,N-dimethyl-D-alaninamide], for which the half-maximal inhibitory concentration (IC50) at AHR [1] (setting [4]) came to 4.9 nM; on AHR [2] it was 1.01e-08 M.
Taken in the same sequence, the figures for `O=C1NCCCC[C@H]1Nc1nc2ccccc2c2nc(-c3cc[nH]n3)nn12` [Example 62, (3R)-3-{[2-(1H-pyrazol-3-yl)[1,2,4]triazolo[1,5-c]quinazolin-5-yl]amino}azepan-2-one] were 154 nM and 1.11e-07 M.
Regarding `Cc1c(-c2nc3c4cccc(Br)c4nc(N[C@@H]4CCCCNC4=O)n3n2)cnn1C` [Example 823, (3R)-3-{[7-bromo-2-(1,5-dimethyl-1H-pyrazol-4-yl)[1,2,4]triazolo[1,5-c]quinazolin-5-yl]amino}azepan-2-one], the concentration for half-maximal inhibition (IC50) on AHR [1] (setting [3]) came out at 3.01 nM; on AHR [2] (firefly luciferase reporter) it was 2.13e-09 M.
For `Cc1cscc1-c1nc2c3ccccc3nc(N[C@@H]3CCNC3=O)n2n1` [Example 541], the IC50 is 631 nM on AHR [1] (setting [4]) and 3.5e-08 M against AHR [2].
On to `CC(C)c1cccc2c1nc(N[C@@H]1CCCCNC1=O)n1nc(-c3cnn(C)c3)nc21` [Example 588, (3R)-3-{[2-(1-methyl-1H-pyrazol-4-yl)-7-(propan-2-yl)[1,2,4]triazolo[1,5-c]quinazolin-5-yl]amino}azepan-2-one], for which the figures for the IC50 at AHR [1] (setting [4]) and against AHR [2] were 1060 nM and 1.84e-08 M, respectively.
The corresponding values for `N#Cc1ccc(-c2nc3c4ccccc4nc(N[C@@H]4CCCCNC4=O)n3n2)cc1` [Example 387, 4-(5-{[(3R)-2-oxoazepan-3-yl]amino}[1,2,4]triazolo[1,5-c]quinazolin-2-yl)benzonitrile] are 0.398 nM and 7.93e-10 M.
The corresponding values for `O=C1NCCCC[C@H]1Nc1nc2c(Br)cccc2c2nc(-c3ccccc3OC(F)(F)F)nn12` [Example 208, (3R)-3-({7-bromo-2-[2-(trifluoromethoxy)phenyl][1,2,4]triazolo[1,5-c]quinazolin-5-yl}amino)azepan-2-one] are 23.8 nM and 1.34e-06 M.
